Reference: patent US20250059220A1, “SUBSTITUTED BENZOTHIOPHENE DERIVATIVES AND METHODS OF USE THEREOF” (Merck Sharp & Dohme LLC, priority 2021, published 2025)

Columns and labels:
human PTPN1 (1-435) = human PTPN1 (1-435) (Homo sapiens (Human), UniProt P18031); test: Human PTPN1 Biochemical Assay; conditions: DiFMUP substrate, read-out: PTP1B IC50
In short: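 Read-out is DiFMUP hydrolysis fluorescence (360 nm excitation, 460 nm emission) after 1 h at room temperature, following 30 min enzyme–compound preincubation.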

human PTPN2 (1-387) = human PTPN2 (1-387) (Homo sapiens (Human), UniProt P17706); test: Human PTPN2 Biochemical Assay; conditions: DiFMUP substrate
Sequence of human PTPN2 (1-387) (P17706 other isoform, or with tags, fused parts or gaps): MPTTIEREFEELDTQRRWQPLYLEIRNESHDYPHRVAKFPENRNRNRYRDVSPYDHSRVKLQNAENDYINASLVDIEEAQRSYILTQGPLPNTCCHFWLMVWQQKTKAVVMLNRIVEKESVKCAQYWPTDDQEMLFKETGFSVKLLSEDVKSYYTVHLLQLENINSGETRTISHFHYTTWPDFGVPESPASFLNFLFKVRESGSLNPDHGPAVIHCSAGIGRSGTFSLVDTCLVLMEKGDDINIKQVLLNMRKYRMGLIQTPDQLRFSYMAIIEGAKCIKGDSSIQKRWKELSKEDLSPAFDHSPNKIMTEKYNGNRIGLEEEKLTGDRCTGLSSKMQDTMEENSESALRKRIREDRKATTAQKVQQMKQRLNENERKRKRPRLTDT
In short: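 Human PTPN2 (1-387) preincubated 30 min at RT with compound (10-point 3-fold series) in Tris pH 7.4 buffer with 0.5 mM DTT, then DiFMUP substrate added for 1 h at RT. Fluorescence at ex 360/em 460 nm, normalised to no-enzyme and enzyme controls; EC50 from 4-parameter fit.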

Sequence of human PTPN1 (1-435) (P18031 whole entry): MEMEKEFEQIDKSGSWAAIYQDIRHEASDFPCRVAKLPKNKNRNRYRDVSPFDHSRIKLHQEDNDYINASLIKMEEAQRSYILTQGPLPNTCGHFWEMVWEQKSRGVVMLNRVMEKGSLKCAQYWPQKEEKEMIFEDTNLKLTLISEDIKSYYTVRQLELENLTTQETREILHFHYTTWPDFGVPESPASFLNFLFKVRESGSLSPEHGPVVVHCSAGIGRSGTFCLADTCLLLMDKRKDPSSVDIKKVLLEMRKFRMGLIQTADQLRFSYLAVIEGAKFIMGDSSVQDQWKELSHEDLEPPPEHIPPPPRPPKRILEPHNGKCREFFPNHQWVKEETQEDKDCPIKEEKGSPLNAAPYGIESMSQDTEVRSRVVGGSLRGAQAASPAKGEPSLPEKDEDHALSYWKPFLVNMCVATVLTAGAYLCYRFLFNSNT

Compound	IC50 (human PTPN1 (1-435)) [nM]	IC50 (human PTPN2 (1-387)) [nM]
CC(NC(=O)c1ccc2sc(C(F)(F)P(=O)(O)O)c(Br)c2c1)c1cccc2ccccc12 (stereo not drawn) [Compound 71]	3650	3530
Cc1ncc(-c2cc(OCCCC(F)(F)F)c3sc(C(F)(F)P(=O)(O)O)c(Br)c3c2)[nH]1 [Compound 452, ((3-bromo-5-(2-methyl-1H-imidazol-5-yl)-7-(4,4,4-trifluorobutoxy)benzo[b]thiophen-2-yl)difluoromethyl)phosphonic acid]	71.9	63.9
O=C(Nc1ccc2sc(C(F)(F)P(=O)(O)O)c(Br)c2c1)C(F)(F)F [Compound 213]	5290	6360
O=C(NCCn1ccnn1)c1ccc2sc(C(F)(F)P(=O)(O)O)c(Br)c2c1 [Compound 147]	3190	5660
O=P(O)(O)C(F)(F)c1sc2ccc(OCCc3ccccc3)cc2c1Br [Compound 221, ((3-bromo-5-phenethoxybenzo[b]thiophen-2-yl)difluoromethyl)phosphonic acid]	3460	6680
O=C(NC(c1cccnc1)C(F)(F)F)c1ccc2sc(C(F)(F)P(=O)(O)O)c(Br)c2c1 (single isomer, unassigned) [Compound 222a, (S or R)-((3-bromo-5-((2,2,2-trifluoro-1-(pyridin-3-yl)ethyl)carbamoyl)benzo[b]thiophen-2-yl)difluoromethyl)phosphonic acid]	1620	1880
O=C(NCCc1c[nH]c2ccccc12)c1ccc2sc(C(F)(F)P(=O)(O)O)c(Br)c2c1 [Compound 153]	3160	1950
Cc1[nH]cnc1CNC(=O)c1ccc2sc(C(F)(F)P(=O)(O)O)c(Br)c2c1 [Compound 217, ((3-bromo-5-(((5-methyl-1H-imidazol-4-yl)methyl)carbamoyl)benzo[b]thiophen-2-yl)difluoromethyl)phosphonic acid]	1840	7060
O=P(O)(O)C(F)(F)c1sc2c(OCCCC(F)(F)F)cccc2c1Br [Compound 410, ((3-bromo-7-(4,4,4-trifluorobutoxy)benzo[b]thiophen-2-yl)difluoromethyl)phosphonic acid]	281	225
CS(=O)(=O)N1CCC(NC(=O)c2ccc3sc(C(F)(F)P(=O)(O)O)c(Br)c3c2)CC1 [Compound 44]	2470	3060
O=C(NC1(c2cccc(F)c2)CCCC1)c1ccc2sc(C(F)(F)P(=O)(O)O)c(Br)c2c1 [Compound 115]	3620	2600
O=C(NCC1CCCN(c2ncccn2)C1)c1ccc2sc(C(F)(F)P(=O)(O)O)c(Br)c2c1 (stereo not drawn) [Compound 114]	3500	5170
CC(=O)N1CCc2ccc(NC(=O)c3ccc4sc(C(F)(F)P(=O)(O)O)c(Br)c4c3)cc21 [Compound 77]	730	1110
C[C@@H](NC(=O)c1ccc2sc(C(F)(F)P(=O)(O)O)c(Br)c2c1)c1ccnn1C [Compound 176]	2680	4720
CCC(NC(=O)c1ccc2sc(C(F)(F)P(=O)(O)O)c(Br)c2c1)c1ncnn1C (stereo not drawn) [Compound 191]	3600	2820
NC(=O)c1cc(OCCC(F)(F)C(F)(F)C(F)F)c2sc(C(F)(F)P(=O)(O)O)c(Br)c2c1 [Compound 291]	21	26.8
NC(=O)c1ccc2sc(C(F)(F)P(=O)(O)O)c(Br)c2c1 [Compound 2]	3230	5320
O=C(NCc1cccnn1)c1cc(Cl)c2sc(C(F)(F)P(=O)(O)O)c(Br)c2c1 [Compound 160]	315	546
O=C(NCc1c[nH]cn1)c1ccc2sc(C(F)(F)P(=O)(O)O)c(Br)c2c1 [Compound 218]	2900	2050
COCCN(CCOC)C(=O)c1ccc2sc(C(F)(F)P(=O)(O)O)c(Br)c2c1 [Compound 7, ((5-(bis(2-methoxyethyl)carbamoyl)-3-bromobenzo[b]thiophen-2-yl)difluoromethyl)phosphonic acid]	764	1330
C[C@@H](NC(=O)c1ccc2sc(C(F)(F)P(=O)(O)O)c(C#N)c2c1)c1cccnn1 [Compound 186]	1380	648
Cn1cnc(CNC(=O)c2ccc3sc(C(F)(F)P(=O)(O)O)c(Br)c3c2)c1 [Compound 178]	10800	5820
O=C(NCc1cnc2[nH]ccc2c1)c1ccc2sc(C(F)(F)P(=O)(O)O)c(Br)c2c1 [Compound 119]	404	630
O=C(Nc1ncc(C2CCC2)o1)c1ccc2sc(C(F)(F)P(=O)(O)O)c(Br)c2c1 [Compound 19]	1500	2350
O=C(NCc1ncn[nH]1)c1ccc2sc(C(F)(F)P(=O)(O)O)c(Br)c2c1 [Compound 139]	1300	1490
O=C(NCCCC(F)(F)F)c1ccc2sc(C(F)(F)P(=O)(O)O)c(Br)c2c1 [Compound 47]	4210	4910
N#Cc1cccc2c(Br)c(C(F)(F)P(=O)(O)O)sc12 [Compound 8, ((3-bromo-7-cyanobenzo[b]thiophen-2-yl)difluoromethyl)phosphonic acid]	3270	3940

Now from value to compound:

IC50 (human PTPN1 (1-435)) [nM]	IC50 (human PTPN2 (1-387)) [nM]	Compound
2.5	2.6	Cc1nn[nH]c1-c1cc(OCCCC(F)(F)F)c2sc(C(F)(F)P(=O)(O)O)c(Br)c2c1 [Compound 366]
76.7	42.8	COc1cc(Cl)ccc1COc1cc(C(N)=O)cc2c(Br)c(C(F)(F)P(=O)(O)O)sc12 [Compound 362]
74.4	51.2	NC(=O)c1cc(OCc2ccc(C(F)(F)F)cc2F)c2sc(C(F)(F)P(=O)(O)O)c(Br)c2c1 [Compound 338]
518	684	O=P(O)(O)C(F)(F)c1sc2c(OCCCC(F)(F)F)cc(CO)cc2c1Br [Compound 408]
12.7	15.5	CS(=O)(=O)CCCOc1cc(C(N)=O)cc2c(C(F)(F)F)c(C(F)(F)P(=O)(O)O)sc12 [Compound 445, ((5-carbamoyl-7-(3-(methylsulfonyl)propoxy)-3-(trifluoromethyl)benzo[b]thiophen-2-yl)difluoromethyl)phosphonic acid]
2390	1610	CC(C)(O)CCCNc1cccc2c(Br)c(C(F)(F)P(=O)(O)O)sc12 [Compound 224]
40	76.9	NC(=O)c1cc(OCCC2CC2(F)F)c2sc(C(F)(F)P(=O)(O)O)c(Br)c2c1 (stereo not drawn) [Compound 286]
14.1	12.2	O=P(O)(O)C(F)(F)c1sc2c(OCC3CC3(F)F)cc(-c3cnn[nH]3)cc2c1Br (stereo not drawn) [Compound 367]
14.8	6.7	CS(=O)(=O)c1ccc(COc2cc(C(N)=O)cc3c(Br)c(C(F)(F)P(=O)(O)O)sc23)c(C#N)c1 [Compound 463, ((3-bromo-5-carbamoyl-7-((2-cyano-4-(methylsulfonyl)benzyl)oxy)benzo[b]thiophen-2-yl)difluoromethyl)phosphonic acid]
17	27.3	NC(=O)c1cc(OCC2CC3(C2)CC(F)(F)C3)c2sc(C(F)(F)P(=O)(O)O)c(Br)c2c1 [Compound 276]
26.9	22	COc1ccc(COc2cc(C(N)=O)cc3c(Br)c(C(F)(F)P(=O)(O)O)sc23)cc1F [Compound 349]
23.4	25.2	NC(=O)c1cc(OCCCCS(N)(=O)=O)c2sc(C(F)(F)P(=O)(O)O)c(Br)c2c1 [Compound 308]
69.7	9.6	NC(=O)c1cc(OCc2ccc(-c3nccs3)cc2)c2sc(C(F)(F)P(=O)(O)O)c(Br)c2c1 [Compound 354]
77.7	68.5	NC(=O)c1cc(C#CCCS(N)(=O)=O)c2sc(C(F)(F)P(=O)(O)O)c(Br)c2c1 [Compound 310]
3.6	2.69	N#Cc1c(C(F)(F)P(=O)(O)O)sc2c(OCCCS(N)(=O)=O)cc(-c3c[nH]nn3)cc12 [Compound 455, ((3-cyano-7-(3-sulfamoylpropoxy)-5-(1H-1,2,3-triazol-4-yl)benzo[b]thiophen-2-yl)difluoromethyl)phosphonic acid]
4.6	4	NC(=O)c1cc(OCC23CC(S(N)(=O)=O)(C2)C3)c2sc(C(F)(F)P(=O)(O)O)c(Br)c2c1 [Compound 403]
9.2	9.67	CNC(=O)c1cc(OCCCS(C)(=O)=O)c2sc(C(F)(F)P(=O)(O)O)c(Br)c2c1 [Compound 319]
55.4	53.9	CCCCCOc1cc(C(N)=O)cc2c(Br)c(C(F)(F)P(=O)(O)O)sc12 [Compound 239]
2.5	2.5	CS(=O)(=O)CCCOc1cc(-c2nc[nH]n2)cc2c(C#N)c(C(F)(F)P(=O)(O)O)sc12 [Compound 428]
153	170	CC1CCS(=O)(=O)C1CCOc1cc(C(N)=O)cc2c(Br)c(C(F)(F)P(=O)(O)O)sc12 (stereo not drawn) [Compound 392]
3930	3840	NC(=O)c1cc(-c2cc[nH]n2)c2sc(C(F)(F)P(=O)(O)O)c(Br)c2c1 [Compound 415, ((3-bromo-5-carbamoyl-7-(1H-pyrazol-3-yl)benzo[b]thiophen-2-yl)difluoromethyl)phosphonic acid]
2.5	2.5	NS(=O)(=O)CCCOc1cc(-c2nc[nH]n2)cc2c(Br)c(C(F)(F)P(=O)(O)O)sc12 [Compound 440]
54	50	CS(=O)(=O)N1CCC(Oc2cc(C(N)=O)cc3c(Br)c(C(F)(F)P(=O)(O)O)sc23)C1 (stereo not drawn) [Compound 248]
17.4	12.9	O=C(NCc1cccnn1)c1cc(OCCCc2cccnc2)c2sc(C(F)(F)P(=O)(O)O)c(Br)c2c1 [Compound 266]
